Experimental data: patent US8530513B1, “Pharmaceutical uses of diterpene excavatolide B from a coral or an analogue thereof” (National Sun Yat-Sen University, priority 2012, dated 2013)

Columns and labels:
COX-2 = test: TPA-induced COX-2 expression in mouse skin, immunohistochemical staining; assay type: in vivo; details: topical for 6 h after TPA, anti-COX-2 immunostaining
NF-κB = test: TPA-induced NF-κB phosphorylation in mouse skin, western blot; assay type: in vivo; details: topical for 2 h after TPA
Experimental: (§1) Shaven abdominal skins of female C57BL/6JNarl mice were not treated or topically treated with vehicle (acetone, 200 μl/site) or TPA (10 nmol in 200 μl acetone/site) at indicated time points or treated first with TPA for 10 min, then with the indicated concentrations of BrD1 at the indicated time points. Abdominal skin samples were collected, homogenated and lysed to prepare total proteins. Protein samples were subsequently resolved by SDS-PAGE using a gradient gel. The resolved proteins were transferred to a PVDF Immobilon-P membrane (Millipore, Bedford, Calif.), and the membrane was blocked with 5% non-fat dry milk in PBST buffer (phosphate-buffered saline (PBS) containing 0.1% Tween 20) for 60 minutes at room temperature. The membranes were incubated overnight at 4° C. with commercially available antibodies (1:1000 dilutions). Loading of equal amounts of protein was assessed using mouse β-actin. The blots were rinsed three times with PBST buffer for 5 minutes. Washed blots were incubated with HRP-conjugated secondary antibody (1:100,000 dilution), then washed again three times with PBST buffer. […] Quantification of bands was performed using Image J software.
(§2) We therefore evaluated whether BrD1 could interfere with TPA-induced activation of Akt and Erk in inflamed skin. […] We thus determined the phosphorylation level of Akt, Erk, NF-κB and IκBα in skins subjected to different treatments. […]

Akt = test: TPA-stimulated Akt phosphorylation in mouse skin, western blot; assay type: in vivo; details: topical for 2 h after TPA
Experimental: as §1, §2

IL-6 = test: LPS-induced IL-6 expression in mouse bone marrow-derived dendritic cells, ELISA; assay type: cell-based; details: for IL-6 expression in LPS-stimulated dendritic cells: LPS 100 ng/ml plus BrD1 at different concentrations, 24 h
Description: For mouse bone marrow-derived DCs (BMDCs), five to six-week-old female C57BL/6JNarl mice were purchased from the National Laboratory Animal Center, Taiwan and kept under SPF conditions. BMDCs were generated from bone marrow cells of C57BL/6 mice as described previously (Yin S Y, Wang W H, Wang B X, Aravindaram K, Hwang P I, Wu H M, Yang N S. BMC genomics 2010, 11:612). In brief, bone marrow was isolated from femurs and tibiae which were then flushed with RPMI-1640 medium using a syringe with a 0.45-mm needle on Day 0. Red blood cells in suspension were lysed for […] with ACK lysing buffer (150 mM NH4Cl, 1.0 mM KHCO3, 0.1 mM EDTA). Bone marrow cells were suspended at a density of 1×10^7 cells/30 ml in RPMI-1640 containing 10% FBS, 2 mM L-glutamine, 1% of nonessential amino acids, 100 U/mL penicillin and 100 μg/mL streptomycin supplemented with 20 ng/mL of mGM-CSF in 15-cm dishes at 37° C. with 5% CO2. On day 2, two-thirds of the medium was removed and 30 mL fresh medium with mGM-CSF was added to the cells. On day 5, culture plates were gently swirled and the floating and loosely adherent cells were discarded. Aliquots of 75% culture media were replenished with 20 ng/mL mGM-CSF and 20 ng/mL mIL-4. On day 7, mouse BMDCs (95% pure CD11b and MHC II) were harvested and incubated in RPMI 1640 medium containing 1 mM sodium pyruvate, 0.1 mM nonessential amino acids, 100 U/ml penicillin, 100 μg/ml streptomycin, and supplemented with 10% fetal bovine serum (Invitrogen, Carlsbad, Calif.) for 24 h at 37° C. with or without test chemicals in the presence or absence of LPS (100 ng/ml).
BMDCs were treated with or without test chemicals in the presence or absence of LPS (100 ng/ml) for 24 h at 37° C. Aliquots of supernatants from DC cultures were assayed for IL-6 and TNF-α using commercial ELISA kits (R&D Systems, Minneapolis, Minn.) following the manufacturer's recommendations.
Several studies have reported that the secretion of specific cytokines, including IL-1β, TNF-α and IL-6 by keratinocytes and various immune cells is involved in cutaneous inflammation (Nestle F O, Di Meglio P, Qin J Z, Nickoloff B J. Nature reviews Immunology 2009, 9:679-691; De Vry C G, Valdez M, Lazarov M, Muhr E, Buelow R, Fong T, Iyer S. J Invest Dermatol 2005, 125:473-481; Cumberbatch M, Dearman R J, Kimber I. Immunology 1996, 87:513-518). In order to investigate the anti-inflammatory effect of BrD1 on cytokine expression, mouse bone marrow-derived dendritic cells were used to evaluate the inhibitory effect of BrD1 on LPS-induced expressions of TNF-α and IL-6. In our time-course study for expression of TNF-α and IL-6, after LPS stimulation, a high expression of TNF-α and IL-6 was maintained at 24 h (FIG. 6A). We therefore chose 24 h as the time point at which to assess the expression of TNF-α and IL-6.

Structure (SMILES): CCCC(=O)O[C@H]1C/C(C)=C\[C@@H]2OC(=O)[C@]3(C)O[C@]23[C@@H](OC(C)=O)[C@H]2[C@@H](C)[C@@H](O)C[C@H](OC(C)=O)[C@]2(C)[C@H]1OC(C)=O [BrD1, excavatolide B]
- TPA-induced COX-2 expression (COX-2): reduced the TPA-induced COX-2 expression in the epidermis
- TPA-induced COX-2 expression (COX-2; listed as excavatolide B): reduces the TPA-induced COX-2 expression in the epidermis
- phosphorylation of NF-κB (NF-κB): effectively inhibited the phoshporylation of NF-κB
- phosphorylation of NF-κB (NF-κB; listed as excavatolide B): effectively inhibits the phoshporylation of NF-κB
- TPA-stimulated phosphorylation of Akt (Akt): significantly inhibited the TPA-stimulated phosphorylation of Akt
- TPA-stimulated phosphorylation of Akt (Akt; listed as excavatolide B): significantly inhibits the TPA-stimulated phosphorylation of Akt
- inhibition of LPS-induced IL-6 expression (structure-activity relationship) (IL-6; DCs co-treated with LPS and BrDs at 20 μM): significantly inhibited the expression of cytokine IL-6
- IL-6 expression in LPS-stimulated dendritic cells (IL-6): strongly inhibited IL-6 expression
- IL-6 expression in LPS-stimulated dendritic cells (IL-6; listed as Excavatolide B): strongly inhibits IL-6 expression
